Experimental data as given in PubChem BioAssay (NCI).
Values joined by “and” are separate entries in the source; they are usually repeats but may differ in a detail not shown here. Identical values can stand only once.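 Growth conditions: 96-well plates. Treatment: test compound, 48 hours, 5 concentrations. Analysis: linear interpolation between bracketing concentrations; unreached endpoints set to highest concentration. GI50 marks 50% less growth. Definition used: TGI = concentration required for complete inhibition of growth.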

What was measured:
Experiment in all cases: growth of human tumour cells (NCI), 48 h
[1] = tested on: M14 melanoma
[2] = tested on: KM12 colon
[3] = tested on: T-47D breast
[4] = tested on: BT-549 breast
[5] = tested on: UACC-257 melanoma
[6] = tested on: MALME-3M melanoma
[7] = tested on: NCI-H226 lung
[8] = tested on: HOP-92 NSCLC
[9] = tested on: EKVX NSCLC
[10] = tested on: MDA-MB-231 breast

SMILES	TGI [1]	TGI [2]	TGI [3]	TGI [4]	TGI [5]	TGI [6]	TGI [7]	TGI [8]	TGI [9]	TGI [10]	GI50 [1]	GI50 [2]	GI50 [3]	GI50 [4]	GI50 [5]	GI50 [6]	GI50 [7]	GI50 [8]	GI50 [9]	GI50 [10]
CN[C@H]1CC[C@]23C[C@]24CC[C@]2(C)[C@@H]([C@H](C)N(C)C)CC[C@@]2(C)[C@@H]4CC[C@H]3C1(C)C	37.2 µM	31.8 µM	35.2 µM	31.9 µM	32.8 µM	32.6 µM	34.9 µM	26 µM	37.9 µM	38.2 µM	–	–	–	–	–	–	–	–	–	–
O=C(Nc1ccc(-n2ccc3c(NC(=O)c4ccccc4)nccc32)cc1)c1ccc(N2CCOCC2)c(C(F)(F)F)c1	> 68.2 µM	18 µM	> 41.1 µM	> 67.9 µM	55.5 µM	41.1 µM	59.4 µM	18.1 µM	> 100 µM	> 60.9 µM	0.43 µM	0.0707 µM	2.65 µM	4.73 µM	3.61 µM	5.96 µM	3.18 µM	1.96 µM	3.9 µM	4.07 µM
COc1ccc(C(=O)c2cc(C)c(OC)c(C)c2)c(OC)c1N(C(=O)CCl)C(=O)CCl	0.531 µM	6.07 µM	44.4 µM	1.43 µM	> 88.4 µM	25.4 µM	4.22 µM	30.9 µM	69 µM	18.9 µM	0.0365 µM	0.0421 µM	0.0445 µM	0.0554 µM	16.8 µM	0.0667 µM	0.0562 µM	0.195 µM	0.0792 µM	0.149 µM
NC(N)=NC(N)=Nc1ccc(S(N)(=O)=O)cc1	> 100 µM	> 100 µM	> 100 µM	> 100 µM	> 100 µM	> 100 µM	> 100 µM	> 100 µM	> 100 µM	> 100 µM	–	–	–	–	–	–	–	–	–	–
CSC1SCC2C(=O)N(C)C(C(C)C)C(=O)OCC(NC(=O)c3cnc4ccccc4n3)C(=O)NC(C)C(=O)N(C)C1C(=O)N(C)C(C(C)C)C(=O)OCC(NC(=O)c1cnc3ccccc3n1)C(=O)NC(C)C(=O)N2C (configuration not stated)	0.00121 µM and 0.00346 µM	–	–	0.0158 µM	–	–	–	–	–	0.00192 µM and 0.00985 µM and 0.0142 µM	< 0.001 µM	< 0.001 µM	< 0.001 µM	< 0.001 µM	< 0.001 µM	< 0.001 µM	0.00325 µM	< 0.001 µM	< 0.001 µM	–
C#CCN(Cc1nc2cc(C(F)(F)F)ccc2nc1-c1ccccc1)c1ccc(F)cc1	> 100 µM	60.9 µM	> 100 µM	> 100 µM	63 µM	53.5 µM	> 100 µM	86.8 µM	66.2 µM	56.8 µM	56.4 µM	21.3 µM	20.8 µM	48 µM	18.7 µM	17.9 µM	42.4 µM	24 µM	23.1 µM	21.6 µM
Cc1cc(C)c(O)c(CNCCCNCc2cc(C)cc(C)c2O)c1	3.55 µM	7.24 µM	4.29 µM	24.5 µM	4.08 µM	3.29 µM	21.9 µM	7.23 µM	20.2 µM	4.45 µM	1.8 µM	2.58 µM	1.73 µM	10.9 µM	2.14 µM	1.73 µM	6.46 µM	1.94 µM	5.04 µM	1.93 µM
COC(=O)CCCNC(=O)C(=O)c1c(O)c(O)c(C(C)C)c2cc(C)c(-c3c(C)cc4c(C(C)C)c(O)c(O)c(C(=O)C(=O)NCCCC(=O)OC)c4c3O)c(O)c12	2.31 µM	4.58 µM	3.06 µM	7.28 µM	6.19 µM	12.9 µM	2.94 µM	2.13 µM	3.79 µM	2.99 µM	0.753 µM	0.164 µM	0.558 µM	1.19 µM	1.77 µM	0.902 µM	0.575 µM	0.37 µM	0.317 µM	0.743 µM
COCC(=O)NC/C=C/c1ccc2ncnc(Nc3ccc(Oc4ccc(C)nc4)c(C)c3)c2c1	31 µM	53 µM	13.6 µM	24.9 µM	36.1 µM	35.4 µM	69.3 µM	36.3 µM	48.7 µM	36.1 µM	11.4 µM	18.7 µM	1.19 µM	6.81 µM	14.9 µM	14.4 µM	14.8 µM	6.48 µM	4.16 µM	12.7 µM
CN(C)C1C(=O)C(C(N)=O)=C(O)C2(O)C(=O)C3=C(O)c4c(O)cccc4C(C)(O)C3CC12 (configuration not stated)	> 100 µM	> 100 µM	> 100 µM	> 100 µM	> 100 µM	> 100 µM	> 100 µM	> 100 µM	> 100 µM	> 100 µM	46.1 µM and > 100 µM	–	–	–	–	–	–	–	–	26.2 µM and > 100 µM
CCCc1n(Cc2ccc3ccccc3n2)cc[n+]1Cc1ccc2ccccc2c1	2.76 µM	2.5 µM	5.55 µM	1.43 µM	1.72 µM	2.75 µM	7.6 µM	1.12 µM	14.9 µM	2.86 µM	0.637 µM	0.626 µM	0.307 µM	0.23 µM	0.347 µM	0.526 µM	1.2 µM	0.188 µM	2.16 µM	1.05 µM
CN1CCN(Cc2ccc(NC(=O)c3cccc(C#Cc4c(N)ncc5ccc(F)cc45)c3)cc2C(F)(F)F)CC1	1.24 µM	0.754 µM	2.65 µM	6.66 µM	2.11 µM	1.35 µM	2.7 µM	1.3 µM	1.95 µM	1.21 µM	0.463 µM	0.121 µM	1.05 µM	2.11 µM	0.969 µM	0.569 µM	0.265 µM	0.349 µM	0.879 µM	0.545 µM
C[C@@H]1OC(=O)NN=C1c1ccc(-c2ccc(F)cc2)c(C(F)(F)F)c1	21.6 µM	19.5 µM	25.8 µM	21.2 µM	19.2 µM	25.8 µM	20.6 µM	25.9 µM	12.4 µM	24.9 µM	7.14 µM	5.95 µM	5.26 µM	7.3 µM	3.72 µM	12.5 µM	2.57 µM	11 µM	–	10.1 µM
O=C1c2ccccc2-c2c1c1ccc([N+](=O)[O-])cc1c(=O)n2CCCn1ccnc1	0.453 µM	1.25 µM	> 33.3 µM	0.96 µM	1.83 µM	1.97 µM	0.0637 µM	29.9 µM	> 21.8 µM	0.408 µM	0.106 µM	0.0227 µM	–	0.0359 µM	0.379 µM	0.148 µM	0.0183 µM	2.18 µM	6.16 µM	0.15 µM
CCN(CC)c1ccc(/C=N/NC(=O)c2ccccc2Nc2ccnc(C(F)(F)F)c2)c(O)c1	1.19 µM	> 100 µM	> 100 µM	> 100 µM	1.72 µM	5.17 µM	2.37 µM	> 100 µM	4.35 µM	> 100 µM	0.175 µM	0.268 µM	0.471 µM	0.529 µM	0.303 µM	0.331 µM	0.235 µM	0.428 µM	0.101 µM	0.261 µM
NC(Cc1c[nH]c2cc(F)ccc12)C(=O)O (configuration not stated)	> 2500 µM	> 2500 µM	> 2500 µM	> 2500 µM	> 2500 µM	2320 µM	> 2500 µM	> 2500 µM	> 2500 µM	> 2500 µM	951 µM	1180 µM	> 2500 µM	841 µM	1490 µM	859 µM	2480 µM	> 2500 µM	> 2500 µM	1460 µM
